Results on 19 compounds are retold here after US12331040B2 (Karyopharm Therapeutics Inc., priority 2013, dated 2025).

Where two headings read alike, the source gives them in different places. A value given as a limit tells only on which side of the number the result lay.

What all share (test): MTT cell proliferation assay
Assay type in all cases: cell-based

In test [1] the test system is Z138 cells. To be noted: Homo sapiens, Z-138, Z138 cells, approximately 64-72 hours incubation. How it is done:
(§1) The MTT cell proliferation assay was used to study the cytotoxic properties of the compounds. The assay was performed according to the method described by Roche Molecular Biochemicals, with minor modifications. The assay is based on the cleavage of the tetrazolium salt, MTT, in the presence of an electron-coupling reagent. The water-insoluble formazan salt produced must be solubilized in an additional step. Cells grown in a 96-well tissue culture plate were incubated with the MTT solution for approximately 4 hours. After this incubation period, a water-insoluble formazan dye formed. After solubilization, the formazan dye was quantitated using a scanning multi-well spectrophotometer (ELISA reader). […] The cells were seeded at 5,000-10,000 cells in each well of 96-well plate in 100 μL of fresh culture medium and were allowed to attach overnight. The stock solutions of the compounds were diluted in 100 μL cell culture medium to obtain eight concentrations of each test compound, ranging from 1 nM to 30 μM. […] All optical densities were measured at 490 nm using a Vmax Kinetic Microplate Reader (Molecular Devices). In most cases, the assay was performed in duplicate and the results were presented as a mean percent inhibition to the negative control±SE. The following formula was used to calculate the percent of inhibition: Inhibition (%)=(1−(ODo/OD))×100.
(§2) The compounds were tested against MS751, Z138 and 3T3 cells. The MS751 cell line is derived from a metastasis to lymph node of human cervix from a patient diagnosed with squamous cell carcinoma of the cervix. The Z138 cell line is a mature B-cell acute lymphoblastic leukemia cell line derived from a patient with chronic lymphocytic leukemia. 3T3 cells are standard fibroblast cells; they were originally isolated from Swiss mouse embryo tissue.

Test [2] deals with MS751 cells. As to conditions: Homo sapiens, MS751, MS751 cells, approximately 64-72 hours incubation. How it is done:
as §1, §2

Test [3] has as its system 3T3 cells. To be noted: Mus musculus, NIH3T3, approximately 64-72 hours incubation. How it is done:
as §1, §2

Where [4] appears, read: read-out: MTT Assay IC50 MS-751.
The mark [5] stands for this setting: read-out: MTT Assay IC50, Z-138.
The mark [6] stands for this setting: read-out: MTT Assay IC50, MS-751.

For orientation: IC50 means the concentration that inhibits the measured activity by half. Regarding `CC1(O)CCN(C(=O)c2ccc(-c3cc(C(F)(F)F)c4oc(CNC(=O)/C=C/c5ccc(N)nc5)cc4c3)nc2)CC1` [Compound 620, (E)-3-(6-aminopyridin-3-yl)-N-((5-(5-(4-hydroxy-4-methylpiperidine-1-carbonyl)pyridin-2-yl)-7-(trifluoromethyl)benzofuran-2-yl)methyl)acrylamide], the IC50 was below 0.1 µM in test [1] (read-out: MTT Assay IC50 Z-138), below 0.1 µM in test [2] (setting [4]) and above 10 µM in test [3] (read-out: MTT Assay IC50 3T3).
In the case of `Nc1ccc(/C=C/C(=O)NCc2cc3cc(-c4ccc(C(=O)N5CCC(F)(F)CC5)cc4)cc(Cl)c3o2)cn1` [Compound 596, (E)-3-(6-aminopyridin-3-yl)-N-((7-chloro-5-(4-(4,4-difluoropiperidine-1-carbonyl)phenyl)benzofuran-2-yl)methyl)acrylamide], the half-maximal inhibitory concentration (IC50) in test [1] (read-out: MTT Assay IC50 Z-138) was 0.1 to 5 µM; in test [2] (setting [4]) it was 0.1 to 5 µM; in test [3] (read-out: MTT Assay IC50 3T3) it was above 10 µM.
In the case of `Nc1ccc(/C=C/C(=O)NCc2cc3cc(-c4ccc(C(=O)N5CCC(F)(F)CC5)cc4)cc(-c4cccc(F)c4)c3o2)cn1` [Compound 726, (E)-3-(6-aminopyridin-3-yl)-N-((5-(4-(4,4-difluoropiperidine-1-carbonyl)phenyl)-7-(3-fluorophenyl)benzofuran-2-yl)methyl)acrylamide], the IC50 is below 0.1 µM in test [1] (setting [5]); below 0.1 µM in test [2] (setting [6]); 0.1 to 5 µM in test [3] (read-out: MTT Assay IC50, 3T3).
With `Nc1ccc(/C=C/C(=O)NCc2cc3cc(-c4ccc(C(=O)NNc5cnccn5)cc4)cc(C(F)(F)F)c3o2)cn1` [Compound 519, (E)-3-(6-aminopyridin-3-yl)-N-((5-(4-(2-(pyrazin-2-yl)hydrazinecarbonyl)phenyl)-7-(trifluoromethyl)benzofuran-2-yl)methyl)acrylamide], the IC50 is 0.1 to 5 µM in test [1] (read-out: MTT Assay IC50 Z-138), 0.1 to 5 µM in test [2] (setting [4]) and above 10 µM in test [3] (read-out: MTT Assay IC50 3T3).
With `Nc1ccc(/C=C/C(=O)NCc2cc3cc(-c4ccc(C(=O)N5CCC(F)(F)CC5)cn4)cnc3o2)cn1` [Compound 658, (E)-3-(6-aminopyridin-3-yl)-N-((5-(5-(4,4-difluoropiperidine-1-carbonyl)pyridin-2-yl)furo[2,3-b]pyridin-2-yl)methyl)acrylamide], the IC50 in test [1] (setting [5]) was 0.1 to 5 µM; in test [2] (setting [6]), 0.1 to 5 µM; in test [3] (read-out: MTT Assay IC50, 3T3), above 10 µM.
For `Nc1ccc(/C=C/C(=O)NCc2cc3cc(C(F)(F)F)cc(-c4ccc(C(=O)N5CCC(F)(F)CC5)cc4)c3o2)cn1` [Compound 702, (E)-3-(6-aminopyridin-3-yl)-N-((7-(4-(4,4-difluoropiperidine-1-carbonyl)phenyl)-5-(trifluoromethyl)benzofuran-2-yl)methyl)acrylamide], the IC50 in test [1] (setting [5]) was 0.1 to 5 µM; in test [2] (setting [6]) it was 5 to 10 µM; in test [3] (read-out: MTT Assay IC50, 3T3), above 10 µM.
For the compound `CC1(C)COCCN1C(=O)c1ccc(-c2cc(C(F)(F)F)c3oc(CNC(=O)/C=C/c4ccc(N)nc4)cc3c2)nc1` [Compound 569, (E)-3-(6-aminopyridin-3-yl)-N-((5-(5-(3,3-dimethylmorpholine-4-carbonyl)pyridin-2-yl)-7-(trifluoromethyl)benzofuran-2-yl)methyl)acrylamide], the results for the IC50 in test [1] (read-out: MTT Assay IC50 Z-138), in test [2] (setting [4]) and in test [3] (read-out: MTT Assay IC50 3T3) were below 0.1 µM, below 0.1 µM and above 10 µM, respectively.
On to `Nc1ccc(/C=C/C(=O)NCc2cc3cc(-c4ccc(C(=O)N5CCC(F)(F)CC5)cn4)cc(-c4ccc5cnccc5c4)c3o2)cn1` [Compound 672, (E)-3-(6-aminopyridin-3-yl)-N-((5-(5-(4,4-difluoropiperidine-1-carbonyl)pyridin-2-yl)-7-(isoquinolin-6-yl)benzofuran-2-yl)methyl)acrylamide], for which the IC50 was 0.1 to 5 µM in test [1] (setting [5]); 0.1 to 5 µM in test [2] (setting [6]); above 10 µM in test [3] (read-out: MTT Assay IC50, 3T3).
`Nc1ccc(/C=C/C(=O)NCc2cc3cc(-c4ccc(C(=O)N5CC[C@H](F)C5)cn4)cc(C(F)(F)F)c3o2)cn1` [Compound 570, (S,E)-3-(6-aminopyridin-3-yl)-N-((5-(5-(3-fluoropyrrolidine-1-carbonyl)pyridin-2-yl)-7-(trifluoromethyl)benzofuran-2-yl)methyl)acrylamide]: the IC50 in test [1] (read-out: MTT Assay IC50 Z-138) is below 0.1 µM; in test [2] (setting [4]), 0.1 to 5 µM; in test [3] (read-out: MTT Assay IC50 3T3), above 10 µM.
The corresponding values for `CN1CCN(C(=O)c2ccc(-c3cc(C(F)(F)F)c4oc(CNC(=O)/C=C/c5ccc(N)nc5)cc4c3)cc2)CC1` [Compound 561, (E)-3-(6-aminopyridin-3-yl)-N-((5-(4-(4-methylpiperazine-1-carbonyl)phenyl)-7-(trifluoromethyl)benzofuran-2-yl)methyl)acrylamide] are below 0.1 µM, below 0.1 µM and 5 to 10 µM.
With `COc1cc(-c2ncc(C(=O)N3CCOCC3)cn2)cc2cc(CNC(=O)/C=C/c3ccc(N)nc3)oc12` [Compound 638, (E)-3-(6-aminopyridin-3-yl)-N-((7-methoxy-5-(5-(morpholine-4-carbonyl)pyrimidin-2-yl)benzofuran-2-yl)methyl)acrylamide], the results for the IC50 in test [1] (read-out: MTT Assay IC50 Z-138), in test [2] (setting [4]) and in test [3] (read-out: MTT Assay IC50 3T3) were below 0.1 µM, 0.1 to 5 µM and above 10 µM, respectively.
Regarding `Nc1ccc(/C=C/C(=O)NCc2cc3cc(-c4ccc(CN5CCC(F)(F)CC5)cn4)cc(C(F)(F)F)c3o2)cn1` [Compound 675, (E)-3-(6-aminopyridin-3-yl)-N-((5-(5-((4,4-difluoropiperidin-1-yl)methyl)pyridin-2-yl)-7-(trifluoromethyl)benzofuran-2-yl)methyl)acrylamide], the IC50 is above 10 µM in test [1] (setting [5]); above 10 µM in test [2] (setting [6]); above 10 µM in test [3] (read-out: MTT Assay IC50, 3T3).
`Nc1ccc(/C=C/C(=O)NCc2cc3cc(-c4ccc(C(=O)N5CC[C@H](F)C5)cc4)cc(Cl)c3o2)cn1` [Compound 528, (S,E)-3-(6-aminopyridin-3-yl)-N-((7-chloro-5-(4-(3-fluoropyrrolidine-1-carbonyl)phenyl)benzofuran-2-yl)methyl)acrylamide]: the IC50 in test [1] (read-out: MTT Assay IC50 Z-138), in test [2] (setting [4]) and in test [3] (read-out: MTT Assay IC50 3T3) was above 10 µM in each case.
With `COc1ccc(-c2ccc(S(=O)(=O)N3CCOCC3)cc2)c2cc(CNC(=O)/C=C/c3ccc(N)nc3)oc12` [Compound 554, (E)-3-(6-aminopyridin-3-yl)-N-((7-methoxy-4-(4-(morpholinosulfonyl)phenyl)benzofuran-2-yl)methyl)acrylamide], the values for the IC50 in test [1] (read-out: MTT Assay IC50 Z-138), in test [2] (setting [4]) and in test [3] (read-out: MTT Assay IC50 3T3) were below 0.1 µM, 0.1 to 5 µM and above 10 µM, respectively.
Consider `Nc1ccc(/C=C/C(=O)NCc2cc3cc(-c4ccc(C(=O)N5CCC(F)(F)CC5)cc4F)cc(-c4cccc(Cl)c4)c3o2)cn1` [Compound 756, (E)-3-(6-aminopyridin-3-yl)-N-((7-(3-chlorophenyl)-5-(4-(4,4-difluoropiperidine-1-carbonyl)-2-fluorophenyl)benzofuran-2-yl)methyl)acrylamide], for which the IC50 in test [1] (setting [5]) was below 0.1 µM; in test [2] (setting [6]), below 0.1 µM; in test [3] (read-out: MTT Assay IC50, 3T3) it was above 10 µM.
Regarding `Nc1ccc(/C=C/C(=O)NCc2cc3cc(-c4cccc(C(=O)N5CCOCC5)c4)cc(Cl)c3o2)cn1` [Compound 543, (E)-3-(6-Aminopyridin-3-yl)-N-((7-chloro-5-(3-(morpholine-4-carbonyl)phenyl)benzofuran-2-yl)methyl)acrylamide], the IC50 was below 0.1 µM in test [1] (read-out: MTT Assay IC50 Z-138), below 0.1 µM in test [2] (setting [4]) and 0.1 to 5 µM in test [3] (read-out: MTT Assay IC50 3T3).
Consider `Nc1ccc(/C=C/C(=O)NCc2cc3cc(-c4ccc(C(=O)NCc5cccnc5)cn4)cc(C(F)(F)F)c3o2)cn1` [Compound 630, (E)-6-(2-((3-(6-aminopyridin-3-yl)acrylamido)methyl)-7-(trifluoromethyl)benzofuran-5-yl)-N-(pyridin-3-ylmethyl)nicotinamide], for which the IC50 in test [1] (read-out: MTT Assay IC50 Z-138) is below 0.1 µM; in test [2] (setting [4]), below 0.1 µM; in test [3] (read-out: MTT Assay IC50 3T3) it was 0.1 to 5 µM.
`O=C(/C=C/c1ccncc1)NCc1cc2cc(-c3ccc(C(=O)N4CCOCC4)cc3)cc(Cl)c2o1` [Compound 535, (E)-N-((7-Chloro-5-(4-(morpholine-4-carbonyl)phenyl)benzofuran-2-yl)methyl)-3-(pyridin-4-yl)acrylamide]: the IC50 in test [1] (read-out: MTT Assay IC50 Z-138), in test [2] (setting [4]) and in test [3] (read-out: MTT Assay IC50 3T3) was above 10 µM each time.
In the case of `Nc1ccc(/C=C/C(=O)NCc2cc3cc(-c4ccc(Oc5ccc(F)cc5)cc4)cc(-c4ccc(F)cc4)c3o2)cn1` [Compound 701, (E)-3-(6-aminopyridin-3-yl)-N-((5-(4-(4-fluorophenoxy)phenyl)-7-(4-fluorophenyl)benzofuran-2-yl)methyl)acrylamide], the concentration for half-maximal inhibition (IC50) in test [1] (setting [5]) was 0.1 to 5 µM; in test [2] (setting [6]), 0.1 to 5 µM; in test [3] (read-out: MTT Assay IC50, 3T3) it was above 10 µM.
